Assay results taken from patent US20210198256A1, “COMPOUNDS FOR THE DEGRADATION OF BRD9 OR MTH1” (C4 Therapeutics, Inc., priority 2018, published 2021).

Target: T1, BRD9 (Homo sapiens, UniProt Q9H8M2)
T1 sequence (Q9H8M2 1-597): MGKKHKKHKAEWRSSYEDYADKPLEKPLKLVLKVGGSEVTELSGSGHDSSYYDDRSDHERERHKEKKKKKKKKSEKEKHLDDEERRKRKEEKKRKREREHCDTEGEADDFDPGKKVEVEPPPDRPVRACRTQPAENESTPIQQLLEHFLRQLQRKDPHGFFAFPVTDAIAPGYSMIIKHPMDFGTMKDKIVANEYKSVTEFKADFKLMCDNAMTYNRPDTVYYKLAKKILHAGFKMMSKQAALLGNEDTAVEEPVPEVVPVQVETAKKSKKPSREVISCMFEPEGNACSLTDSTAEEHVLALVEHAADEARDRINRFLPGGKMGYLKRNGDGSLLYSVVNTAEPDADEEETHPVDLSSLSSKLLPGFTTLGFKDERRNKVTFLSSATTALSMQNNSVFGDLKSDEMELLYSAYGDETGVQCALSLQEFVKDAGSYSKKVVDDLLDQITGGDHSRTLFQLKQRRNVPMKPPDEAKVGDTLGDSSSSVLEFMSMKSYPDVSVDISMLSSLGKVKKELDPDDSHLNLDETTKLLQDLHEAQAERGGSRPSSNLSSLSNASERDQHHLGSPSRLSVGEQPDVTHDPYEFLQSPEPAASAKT
Test: HiBit Lytic Assay (HiBit DC50, BRD9 degraders of Table 1)
Type: cell-based
Details: 11-point half log dose response, NanoLuc signal
Description: Example 3. HiBit Lytic Assay
• Compound is made at 10 mM, half log dilution, 11 points. • MDR plates can also be ordered from Frontier with same format. • 1. Barcode a 384LDV plate (384-well Low Dead Volume Microplate, Labcyte LP-0200) (Echo compatible) on the left side. • 2. Transfer 13.6 μL of 10 mM compound into column 1 of LDV plate (Labcyte). • 3. Fill column 2-11 and column 23 of MDR plate with 9.30 μL of DMSO. • 4. Serial dilute 3.16 fold from column 1 to 2 by transferring 4.30 μL from column 1 to column 2, and so on to column 11. *Change tip in every dilution to prevent compound carryover effect! • 5. Seal the plate with Plate Sealer, then store the MDR plate at room temperature for short term storage and in −20° C. for long term storage.
• Cells are treated with 30 nL of each compound at 10 mM, half log dilution, 11 points with final concentration of 1000 nM or 833 nM, half log dilution, 11 points, in duplicates. Final DMSO concentration is 0.1%. • 1. Barcode the plates made on the left side and label the plates with silver marker. • 2. Dispense with the following scheme: • a. 30 nL of compound into corresponding wells in cell plates via Echo550 with “MDR32_HiBiT16_30 nL”. Top concentration will be 1000 nM. • 3. Seal the plate with Plate Sealer.
• Cells are dispensed at density specified in Cell Line Table in 384-well microplate. • 1. Culture cells to between 50-80% of confluence in sterile culture flasks of appropriate size. • 2. For Adherent Cell Lines: • a. Aspirate off growth media in culture flask, and wash off the Phenol Red media with 5 mL of 1×PBS. • b. Add 5 mL of Trypsin to the cells, incubate at 37° C. for 5 minutes. • c. Add 5 mL of growth media to the trypsinzed cells, and resuspend. • 3. Remove 10 μL of cells, and resuspend the cells with 10 μL of Trypan Blue. Insert the solution to counting chamber slide, and count the cells via cell counter. • 4. Adjust the cell concentration to specified plating density, and strain the cells with cell strainer. • 5. Dispense the cells via E1-ClipTip™ Electronic Multichannel Pipettes or Multidrop™ Combi Reagent Dispenser with Standard tube dispensing cassette: • a. Prime the cassette with 10-20 mL of ddH2O. • b. Prime the cassette with 10-20 mL of cells. • c. Dispense the cells at low speed for 30 μL/well in Corning® 384 Well Low Flange Black Flat Bottom Polystyrene TC-Treated Microplate. • d. Wash the cassette with 10-20 mL of ddH2O, follow by 10-20 mL of 70% EtOH, then again with 10-20 mL of ddH2O. • 6. Incubate the plates at 37° C.×compound treatment time.
• 1. If not already, bring Nano-Glo® HiBiT Lytic Buffer to room temperature. • 2. Determine the amount of reagent needed. A volume of reagent equal to the volume of media in the well should be added (i.e. 30 μL of cells will need 30 μL of HiBiT Lytic reagent). • 3. Into a given volume of buffer, dilute the substrate 50-fold and the LgBiT protein 100-fold. For example, to make 10 ml of reagent, add the following: • 10 ml Nano-Glo® HiBiT Lytic Buffer • 200 μl Nano-Glo® HiBiT Lytic Substrate • 100 μl LgBiT Protein • The reagent should be reconstituted immediately before use. However, once reconstituted, it should take about 4 hours for the activity to decrease 10%. • 4. Cool down the cell plate to room temperature for 10-15 minutes without lid. • 5. Dispense the HiBiT Lytic Reagent via E1-ClipTip™ Electronic Multichannel Pipettes or Multidrop™ Combi Reagent Dispenser with Standard tube dispensing cassette: • a. Prime the cassette with 10-20 mL of ddH2O. • b. Prime the cassette with 10-20 mL of CTG 2.0. • c. Dispense the HiBiT Lytic Reagent at medium speed for 30 μL/well in cell plate to column 1-23 (column 24 will be used as plate background). • d. Wash the cassette with 10-20 mL of ddH2O, follow by 10-20 mL of 70% EtOH, then again with 10-20 mL of ddH2O. • 6. Incubate the cell plate at room temperature for 10 minutes without lid. • 7. […]

DC50, < 0.1 µM:
COc1cc(-c2cn(C)c(=O)c(C)n2)cc(OC)c1CN(C)CC(=O)NCCCCCCCCNc1cccc2c1C(=O)N(C1CCC(=O)NC1=O)C2=O (stereo not drawn) [Compound 225, 2-((4-(4,6-dimethyl-5-oxo-4,5-dihydropyrazin-2-yl)-2,6-dimethoxybenzyl)(methyl)amino)-N-(8-((2-(2,6-dioxopiperidin-3-yl)-1,3-dioxoisoindolin-4-yl)amino)octyl)acetamide]

Test system: SMART-CAR_MTH1-WT (Jurkat.2 cells)
Test: HTFC Assay (HTFC DC50)
Type: cell-based, human
Details: Jurkat.2 (SMART-CAR_MTH1-WT) cells, 4 hours at 37° C., FITC anti-HA staining, flow cytometry
Description: FITC anti-HA.11 epitope tag antibody (Biolegend #901507) FITC Mouse IgG1 k isotope control antibody (Biolegend #400108)
Dry dispense 10 nL/well of compound+90 […] into 96-well V-bottom plates: 4 compounds/plate in 11-point dose response in biological duplicates. Column 12 as DMSO controls.
• 1. Plate Jurkat.2 (SMART-CAR_MTH1-WT) cells with Combi on top of dry dispensed compound: 500,000 cells/mL, 100 uL/well • 2. Incubate for 4 hours at 37° C. • 3. Fixation, permeabilization, and staining: • a. Centrifuge at 1500 rpm for 7 minutes, remove supernatant. • b. Add 100 μl of Fixation/Permeabilization Solution, seal plates, vortex, pulse spin, and incubate at 4° C. for 30 minutes. • c. Centrifuge at 1500 rpm for 7 minutes, remove supernatant. • d. Dilute BD Perm/Wash Buffer to 1× with milliQ water. • e. Wash with 200 uL of BD Perm/Wash Buffer, seal plates, vortex. • f. Centrifuge at 1500 rpm for 7 minutes, remove supernatant. • g. Wash with 200 uL of BD Perm/Wash Buffer, seal plates, vortex. (Option to stop, store at 4° C. if needed) • h. Centrifuge at 1500 rpm for 7 minutes, remove supernatant. • i. Add 50 uL BD Perm/Wash Buffer containing 1:1000 of HA-FITC (Well A12:D12) or IgG-FITC (Well F12:H12) directly conjugated antibody, seal plates, vortex, pulse spin, and incubate at 4° C. for 1 hour. • j. Centrifuge at 1500 rpm for 7 minutes, remove supernatant. • k. Wash with 200 uL of BD Perm/Wash Buffer, seal plates, vortex. • 4. Centrifuge at 1500 rpm for 7 minutes, remove supernatant. • a. Resuspend in 200 ul of BD Perm/Wash Buffer. (Option to stop, store at 4° C. if needed)
• 1. Use analysis from template HTFC file. • 2. Export statistics by going to Tools>Group stats, save as a .csv file with the plate barcode as the name. • 3. Remove all columns from this file except for “Well”, “Sample ID”, “Date”, and “HA+.Mean.Y Mean for HA+ gated by P01.cells”. • 4. Create a New DB Analysis in Scinamic using the “HTFC-Cell Pharm” template. • 5. Load Incyte file “barcode”.csv. • 6. Load Echo file with the generated Echo report (P:\LabData\Echo\Project\SMARTCAR\Echo Report\Labcyte Echo Dose-Response) • 7. Edit Platemap.xlsx with the plate barcodes. • 8. Load Plate Map with this file. • 9. Cleanup compound Ids, mask control outliers, and assign curves.
Using the above assay the HTFC DC50 data was determined for the compounds in Table 2 below.
Example 6: HiBit and HTFC DC50 Data for Representative Compounds of the Present Invention

DC50, < 0.1 µM:
CNC(=O)c1cnc2ccc(C(=O)NCC(=O)N3CCN(C(=O)CNc4cccc5c4C(=O)N(C4CCC(=O)NC4=O)C5=O)CC3)cc2c1Nc1ccccc1 (stereo not drawn) [Compound 348, 4-anilino-N6-[2-[4-[2-[[2-(2,6-dioxo-3-piperidyl)-1,3-dioxo-isoindolin-4-yl]amino]acetyl]piperazin-1-yl]-2-oxo-ethyl]-N3-methyl-quinoline-3,6-dicarboxamide]
CNC(=O)c1cnc2ccc(-c3ccc(C(=O)NCCCCNC(=O)CNc4cccc5c4C(=O)N(C4CCC(=O)NC4=O)C5=O)c(F)c3)cc2c1Nc1ccccc1 (stereo not drawn) [Compound 350, 4-anilino-6-[4-[4-[[2-[[2-(2,6-dioxo-3-piperidyl)-1,3-dioxo-isoindolin-4-yl]amino]acetyl]amino]butylcarbamoyl]-3-fluoro-phenyl]-N-methyl-quinoline-3-carboxamide]
CNC(=O)c1cnc2ccc(-c3ccn(CCCCCCNC(=O)COc4cccc5c4C(=O)N(C4CCC(=O)NC4=O)C5=O)n3)cc2c1Nc1ccccc1 (stereo not drawn) [Compound 361, 4-anilino-6-[1-[6-[[2-[2-(2,6-dioxo-3-piperidyl)-1,3-dioxo-isoindolin-4-yl]oxyacetyl]amino]hexyl]pyrazol-3-yl]-N-methyl-quinoline-3-carboxamide]
CNC(=O)c1cnc2ccc(-c3ccc(C(=O)NCCCN4CCC(Nc5cccc6c5C(=O)N(C5CCC(=O)NC5=O)C6=O)CC4)cc3)cc2c1Nc1ccccc1 (stereo not drawn) [Compound 366, 4-anilino-6-[4-[3-[4-[[2-(2,6-dioxo-3-piperidyl)-1,3-dioxo-isoindolin-4-yl]amino]-1-piperidyl]propylcarbamoyl]phenyl]-N-methyl-quinoline-3-carboxamide]
CNC(=O)c1cnc2cc(OC)c(-c3ccc(C(=O)NCCCCNC(=O)C(C)Nc4cccc5c4C(=O)N(C4CCC(=O)NC4=O)C5=O)c(F)c3)cc2c1Nc1ccccc1 (stereo not drawn) [Compound 367, 6-(4-((4-(2-((2-(2,6-dioxopiperidin-3-yl)-1,3-dioxoisoindolin-4-yl)amino)propanamido)butyl)carbamoyl)-3-fluorophenyl)-7-methoxy-N-methyl-4-(phenylamino)quinoline-3-carboxamide]
CNC(=O)c1cnc2ccc(-c3ccc(OCCCCNC(=O)CNc4cccc5c4C(=O)N(C4CCC(=O)NC4=O)C5=O)nc3)cc2c1Nc1ccccc1 (stereo not drawn) [Compound 369, 4-anilino-6-[6-[4-[[2-[[2-(2,6-dioxo-3-piperidyl)-1,3-dioxo-isoindolin-4-yl]amino]acetyl]amino]butoxy]-3-pyridyl]-N-methyl-quinoline-3-carboxamide]
CNC(=O)c1cnc2cc(OC)c(OCC3CCN(C(=O)CCCNC(=O)CNc4cccc5c4C(=O)N(C4CCC(=O)NC4=O)C5=O)CC3)cc2c1Nc1ccccc1 (stereo not drawn) [Compound 370, 6-((1-(4-(2-((2-(2,6-dioxopiperidin-3-yl)-1,3-dioxoisoindolin-4-yl)amino)acetamido)butanoyl)piperidin-4-yl)methoxy)-7-methoxy-N-methyl-4-(phenylamino)quinoline-3-carboxamide]
CNC(=O)c1cnc2cc(OC)c(OCC3CCN(CCCCNC(=O)CNc4cccc5c4C(=O)N(C4CCC(=O)NC4=O)C5=O)CC3)cc2c1Nc1ccccc1 (stereo not drawn) [Compound 371, 6-((1-(4-(2-((2-(2,6-dioxopiperidin-3-yl)-1,3-dioxoisoindolin-4-yl)amino)acetamido)butyl)piperidin-4-yl)methoxy)-7-methoxy-N-methyl-4-(phenylamino)quinoline-3-carboxamide]
